The record followed here is patent publication US4515785A, “Neem bark extracts” (priority 1980, dated 1985).

Values after ≈ are worked out from the molar mass of the structure shown. Values joined by “and” are separate entries in the source; they are usually repeats but may differ in a detail not shown here. Identical values can stand only once. *1 amine or outer side, *2 acyl side, *3 side chain or, on linkers, in order; H or OH if unused. Where a SMILES comes first, the peptide text is derived from it. Bridges are numbered along the chain shown (N, C = ends). Roman numbers before positions name the chains, in order. [ ]: non-standard residue; d: D form. Actinocin(9to1) = Cc1c2oc3c(C)ccc(C(=O)[*:1])c3nc-2c(C(=O)[*:2])c(N)c1=O; NMeV = CN[C@H](C(=O)O)C(C)C; Sar = CNCC(=O)O

One assay deals with sarcoma 180 solid tumor. The experiment in a line: Effects on sarcoma 180 solid tumor (Test V). It is filed as in vivo, mouse (ICR). The settings on record: Table IV; for T/C (tumor weight ratio treated/control): 15th-21st day. As to the method:
Test materials were prepared in the same manner as in Test IV under (1).
A cell suspension containing 1×10^8 cells per ml. was prepared in the same way as in Test IV under (2). Four week old-ICR mice was innoculated subcutaneously on the back with 0.1 ml. of the suspenstion by means of a syringe.
As in Test IV under (3), a group of 6 animals was used for each concentration of each test material.
Grown tumor tissue was resected on the 15th-21st day of the tumor cell transplantation and weighed. An average for the group of 6 animals was taken for the evaluation. The effect was evaluated on the basis of ratio of the average weight for the treated animals to that of the control animals. […] Ratios (T/C) of 100-71% were rated ineffective (-), of 70-51% plus 1 (+), of 50-21% plus 2 (++), and of 20-0% plus 3 (+++).

The subject of assay [1] is sarcoma 180 ascites tumor. The experiment in a line: Effects on sarcoma 180 ascites tumor (Test IV). It is filed as in vivo, mouse (ICR). The settings on record: Table III; for T/C (TPCV ratio treated/control): 4 days, 7th day. As to the method:
A portion of each of the extraction fractions was suspended or dissolved in 0.5% suspension of carboxymethylcellulose (CMC) in a phosphate buffered saline solution (PBS commercially available from GIBCO Laboratories, containing ca. 9.5 mM phosphate) to a predetermined concentration.
Mouse sarcoma 180 tumor cells which have been subcultivated intraperitoneally in ICR mice were drawn from the mouse together with the ascites and diluted with physiological saline solution to a cell count of 10^8 per ml. The tumor cell suspension thus prepared was transplanted by means of a syringe intraperitoneally into 4 week-old male ICR mice at a dose of 0.1 ml. Consequently, the cell count transplanted per mouse was 1×10^7.
The test material as prepared above was intraperitoneally administered at a dose of 0.1 ml. per mouse for 4 days once a day from the next day of the transplantation of mouse sarcoma 180 tumor cells. A group of 6 mice was employed for each concentration of each test material. […] As a control was administered the CMC-containing PBS as described above only in the same way as above. The dose is expressed as weight per kg. bodyweight of mouse.
On the 7th day of transplantation of the tumor cells the bodyweight of each mouse was measured (X). Then, ascites was thoroughly drawn from the mouse, followed by measurement of the bodyweight (Y). X-Y is taken as the amount of ascites.
The drawn ascites was the introduced into a hematocrit tube and then centrifuged at 15,000 G for 5 minutes using a hematocrit rotor at a low temperature. There was thus made determination of the ascitocrit value, that is, proportion of the cells present in the ascites which corresponded to the hematocrit value in hematology. The value multiplied by volume of the ascites gives the volume of the cells present in the ascites. This is designated as total packed cell volume (TPCV).
Effect on the tumor was rated ineffective (-) when the TPCV ratio of the treated to the control (T/C) was 100-66%, plus 1 (+) when it was 65-41%, plus 2 (++) when it was 40-11%, and plus 3 (+++) when it was 10-0%.

A further assay concerns mouse L-5178Y cells. Description: Effects on mouse L-5178Y cells (Test III). It is filed as cell-based. The conditions noted are these: 2 days. The method, then: A medium containing 1×10^5 cells/ml. was prepared using mouse L-5178Y cells cultivated on RPMI-1640 medium containing 10% fetal bovine serum for 3 days. The medium was placed in a 96-well U-type microplate in an amount of 50 μl. per well.
A portion of the test material, which was one of the extracts according to the invention described in the above examples, was dissolved in the medium to a final concentration in the medium as shown in Table II below. The amount of the solution per well was 60 μl. The test material thus prepared was incubated in a carbon-dioxide incubator at 37° C. for 2 days. After completion of the incubation, the cells were collected and counted well by well, and the cell counts were compared with cell count of the control which contained no test material. The cell could of the control was approximately 8.6×10^5 /ml. For activity comparison's sake, the same test was done with mitomycin C (MMC) or bleomycin (BLM). In the table below, T/C represents the ratio of count of the cells treated with the test material to that with no test material added. ID50 is the concentration of the test material required for decreasing concentration of the cells to 1/2 that of the control.
The neem extracts produced in Examples 5-7 above were tested for effects on mouse L-5178Y cells, sarcoma 180 ascites and solid tumors according to the methods described in Tests II-IV.

As to `O=c1[nH]cc(F)c(=O)[nH]1` [Example 5-Fu, 5-fluorouracil], the Rating entry is “+ (of 70-51% plus 1 (+))” in the assay with sarcoma 180 solid tumor (20 mg./kg.) and “+++ (plus 3 (+++) when it was 10-0%)” in assay [1] (20 mg./kg.). Also, the “T/C (tumor weight ratio treated/control)” value in the assay with sarcoma 180 solid tumor (20 mg./kg.) is 47.8%. Besides, the “T/C (TPCV ratio treated/control)” value in assay [1] (20 mg./kg. i.p. once a day) worked out at 0%.

As for bleomycin [BLM], in the assay on sarcoma 180 solid tumor (10 mg./kg.), the “T/C (tumor weight ratio treated/control)” value is 43.5% and 52.3%. In addition, the Rating entry in assay [1] (10 mg./kg.) is reported as “+++ (plus 3 (+++) when it was 10-0%)”. Moreover, the “T/C (TPCV ratio treated/control)” value in assay [1] (10 mg./kg. i.p. once a day) was 0%. Besides, the “T/C (cell count treated / no test material)” value is 57.1% with mouse L-5178Y cells (5 μg./ml.), 46.1% in the assay on mouse L-5178Y cells (10 μg./ml.) and 8.8% in the assay on mouse L-5178Y cells (100 μg./ml.). In the assay with mouse L-5178Y cells (Table II, concentration decreasing cells to 1/2 of control), this molecule yielded an ID50 of 7.8 µg/mL.

Consider `Cc1c2oc3c(C)ccc(C(=O)N[C@@H]4C(=O)N[C@H](C(C)C)C(=O)N5CCC[C@H]5C(=O)N(C)CC(=O)N(C)[C@@H](C(C)C)C(=O)O[C@@H]4C)c3nc-2c(C(=O)N[C@@H]2C(=O)N[C@H](C(C)C)C(=O)N3CCC[C@H]3C(=O)N(C)CC(=O)N(C)[C@@H](C(C)C)C(=O)O[C@@H]2C)c(N)c1=O` [ACD, actinomycin D] (I: T[dV]P[Sar][NMeV] / II: T[dV]P[Sar][NMeV]; ester I:1-I:C, II:1-II:C; linker I:N-II:N via Actinocin(9to1)), for which, in assay [1] (0.1 mg./kg.), the Rating result is recorded as “+++ (plus 3 (+++) when it was 10-0%)”. Moreover, in assay [1] (0.1 mg./kg. i.p. once a day), the “T/C (TPCV ratio treated/control)” value was determined as 0%.

As for `O=P1(N(CCCl)CCCl)NCCCO1` (centres unmarked) [CYP, cyclophosphamide], the Rating entry in the assay with sarcoma 180 solid tumor (33 mg./kg.) is given as “+++ (of 20-0% plus 3 (+++))”; with sarcoma 180 solid tumor (67 mg./kg.), “+++ (of 20-0% plus 3 (+++))”; in assay [1] (33 mg./kg.), “+++ (plus 3 (+++) when it was 10-0%)”; in assay [1] (67 mg./kg.), “+++ (plus 3 (+++) when it was 10-0%)”. The “T/C (tumor weight ratio treated/control)” value in the assay on sarcoma 180 solid tumor (33 mg./kg.) and with sarcoma 180 solid tumor (67 mg./kg.) was 0% each time. The “T/C (TPCV ratio treated/control)” value in assay [1] (33 mg./kg. i.p. once a day) and in assay [1] (67 mg./kg. i.p. once a day) was 0% throughout.

On to `CO[C@@]12[C@H](COC(N)=O)C3=C(C(=O)C(C)=C(N)C3=O)N1C[C@@H]1N[C@@H]12` [MMC, mitomycin C], for which the values for the Rating result (in the assay on sarcoma 180 solid tumor (0.5 mg./kg.); in assay [1] (0.5 mg./kg.); in assay [1] (1.5 mg./kg.)) were “- (Ratios (T/C) of 100-71% were rated ineffective (-))”, “+++ (plus 3 (+++) when it was 10-0%)” and “+++ (plus 3 (+++) when it was 10-0%)”, respectively. Also, the “T/C (tumor weight ratio treated/control)” value in the assay with sarcoma 180 solid tumor (0.5 mg./kg.) is 71.0%; in the assay on sarcoma 180 solid tumor (1.5 mg./kg.), 32.5% and 50.2%. In addition, the “T/C (TPCV ratio treated/control)” value in assay [1] (0.5 mg./kg. i.p. once a day) and in assay [1] (1.5 mg./kg. i.p. once a day) was 0% each time. Besides, the activity at 0.1 µg/mL with mouse L-5178Y cells (Mus musculus, L5178Y, 48 h, 0.1 μg./ml., read-out: T/C (cell count treated / no test material)) is 47.9%. In addition, the activity at 0.3 µg/mL with mouse L-5178Y cells (Mus musculus, L5178Y, 48 h, 0.3 μg./ml., read-out: T/C (cell count treated / no test material)) was 24.7%. Also, the activity at 1 µg/mL in the assay on mouse L-5178Y cells (Mus musculus, L5178Y, 48 h, 1.0 μg./ml., read-out: T/C (cell count treated / no test material)) was 13.4%. Besides, in the assay with mouse L-5178Y cells (Mus musculus, L5178Y, 48 h, Table II, concentration decreasing cells to 1/2 of control, read-out: ID50 (the source's name)), the IC50 worked out at 0.09 µg/mL (≈ 0.269 µM).
